The record followed here is PMC6540952 (Chemical Science, 2019).

Structures are written as SMILES.

In the assay the target is IP6K1 (Homo sapiens, UniProt Q92551). Briefly: NMR kinase activity assay with [[…]6]InsP6, […] ATP. Type of assay: biochemical.
Chain of IP6K1 (Q92551 whole entry): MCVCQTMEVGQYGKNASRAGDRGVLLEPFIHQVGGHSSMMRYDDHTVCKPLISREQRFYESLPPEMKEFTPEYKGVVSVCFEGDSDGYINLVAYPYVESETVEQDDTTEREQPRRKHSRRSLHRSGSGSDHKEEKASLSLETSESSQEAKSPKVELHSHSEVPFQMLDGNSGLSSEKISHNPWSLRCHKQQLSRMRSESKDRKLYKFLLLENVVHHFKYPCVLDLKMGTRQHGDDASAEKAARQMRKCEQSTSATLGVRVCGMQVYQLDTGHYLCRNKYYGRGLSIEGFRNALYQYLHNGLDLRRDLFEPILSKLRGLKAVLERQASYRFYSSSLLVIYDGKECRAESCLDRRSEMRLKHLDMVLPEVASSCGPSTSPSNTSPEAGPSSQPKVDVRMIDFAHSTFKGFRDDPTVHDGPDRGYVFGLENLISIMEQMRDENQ

In general, IC50 refers to the concentration at which inhibition is half-maximal. High values mean lower potency, low ones higher potency. The molecule `O=[N+]([O-])c1ccc(CNc2nc(NCc3cccc(C(F)(F)F)c3)nc3[nH]cnc23)cc1` [TNP] returned an IC50 of 2250 nM.
